Source: patent EP0022408A1, “Derivatives of alpha-phenyl-2-pyrrolidine methanol and their salts, process for their preparation, use as medicines and compositions containing them” (ROUSSEL-UCLAF, priority 1979, dated 1981)
Counter-ions that a name gives are not always drawn.

Tests used:
[1] = tested on: Hypothermie à l'apomorphine; experiment: Antidepressant activity: apomorphine hypothermia; type: in vivo, souris mâles; conditions: Mus musculus, ip; intraperitoneal, before apomorphine hydrochloride 16 mg/kg intraperitoneal; rectal temperature; read-out: DE 50 (dose qui réduit de 50 % l'écart de température observé entre les témoins)
Method: (§1) 6) Détermination de l'activité antidénpressive
b) Hypothermie à l'apomorphine
Le test est effectué sur un lot de 10 souris mâles.
On induit chez les animaux une hypothermie par injection intrapéritonéale de 16 mg/kg de chlorhydrate d'apomorphine. Le composé testé est administré par voie intrapéritonéale 30 mm avant l'injection d'apomorphine; la température rectale des animaux est mesurée 30 mm après l'injection d'apomorphine.
Des animaux témoins reçoivent soit du soluté physiologique, soit de l'apomorphine; on mesure l'écart de température entre les témoins ayant reçu le soluté physiologique, les témoins ayant reçu l'apomorphine seule et les animaux ayant reçu l'apomorphine et le composé testé.
On appelle DE 50 la dose de composé qui réduit de 50 % l'écart de température observé entre les témoins, […]

souris = experiment: Acute toxicity, intraperitoneal, mouse; type: in vivo; conditions: mortality recorded 48 hours after administration
Excerpt: 5) Etude de la toxicité aigüe
On évalue les doses létales 50 (DL 50) des produits après administration par voie intrapéritonéale chez la souris.
La mortalité est relevée quarante-huit heures après l'administration des produits.

[2] = tested on: bronchospasme provoqué par l'histamine; experiment: Action on histamine-induced bronchospasm in the guinea pig (Konzett and Rossler method); type: in vivo, cobaye; conditions: 1µg/kg i.v. one minute before histamine (2 à 10µg/kg i.v.)
Method: -2) Action sur le bronchospasme provoqué par l'histamine chez le cobaye
Suivant la méthode de Konzett et Rossler Arch. exp. Path. Pharmakol. 195 71 (1940), de l'histamine est administrée à une dose variant de 2 à 10µg/kg i.v. selon la sensibilité de l'animal.
L'enregistrement de la pression produite par l'air expulsé est effectué à l'aide d'un microdynamomètre Apelab.
Le produit à tester est injecté en solution dans le sérum physiologique par voie i.v. une minute avant l'histamine.
On enregistre un éventuel effet du produit seul et son action antagoniste vis-à-vis de l'agent constricteur.
L'activité antagoniste est exprimée en pourcentage de protection par rapport au bronchospasme initial dû à l'histamine.

[3] = tested on: Hypothermie à la réserpine; experiment: Antidepressant activity: reserpine hypothermia; type: in vivo, souris mâles; conditions: 10 mg/kg I.P; reserpine 4 mg/kg intraperitoneal; rectal temperature measured for 5 hours
Method: as §1
a) Hypothermie à la réserpine
Le test est effectué sur un lot de 10 souris mâles auxquelles on administre par voie intrapéritonéale 4 mg/kg de réserpine.
La température rectale des animaux est mesurée pendant 5 heures à l'aide d'un thermomètre électrique.

trachée isolée de cobaye = experiment: Action on isolated guinea pig trachea (carbachol-induced contractions); type: cell-based; conditions: Cavia porcellus; product at 3.10^-6M; carbachol 0,4µ/ml; Krebs Henseleit solution, 37°C; read-out: antagonise les contractions provoquées par le carbachol
Method: 1) Action sur la trachée isolée de cobaye
On prélève les trachées de cobaye que l'on vient de sacrifier par un coup sur la nuque, les trachées sont découpées en spirale et suspendues dans une solution de Krebs Henseleit, à la température de 37°C dans laquelle barbote un mélange de 95 % d'oxygène et 5 % de gaz carbonique.
On ajoute dans la solution du carbachol comme agoniste pour provoquer des contractions.
Le produit de l'exemple 1 à la concentration de 3.10^-6M, antagonise de 100 % les contractions provoquées par le carbachol à la concentration de 0,4µ/ml.

[4] = tested on: pression artérielle carotidienne; experiment: Hypotensive activity in anaesthetised rats (carotid arterial pressure); type: in vivo, rats mâles de souche Sprague Dawley S.P.F.; conditions: rats anaesthetised with nembutal
Method: 3) Déterminiation de l'activité hypotensive
L'activité hypotensive a été étudiée sur des rats mâles de souche Sprague Dawley S.P.F. pesant 300 g environ et anesthésiés au nembutal (50 mg/kg par voie intraveineuse).
Le produit testé a été administré par voie intraveineuse dans la veine jugulaire.
La pression artérielle carotidienne a été mesurée avant et après administration du produit testé.
Le tableau ci-après indique les variations exprimées en pourcentage de la pression artérielle, après administration du produit testé par rapport à la pression artérielle initiale ainsi que le temps pendant lequel se manifestent ces variations.

Structure (SMILES) | ED50 [1] [mg/kg] | dose létale 50 (DL 50) (souris; listed as exemple 1, 2880 min) [mg/kg] | inhibition de la broncho constriction à l'histamine (pourcentage de protection par rapport au bronchospasme initial) ([2]; listed as exemple 1) [%] | apparition de l'hypothermie provoquée par la réserpine [3] | inhibition at 3 µM (trachée isolée de cobaye) [%] | Variations % de la pression artérielle ([4]; 1 mg/kg intravenous (jugular vein), relative to initial pressure) [%] | Durée d'action ([4]; 1 mg/kg intravenous) [min] | dose létale 50 (DL 50) (souris; listed as exemple 3, 2880 min) [mg/kg] | inhibition de la broncho constriction à l'histamine (pourcentage de protection par rapport au bronchospasme initial) ([2]; listed as exemple 3) [%]
Oc1ccc(C(O)C2CCCN2)cc1O (single isomer, unassigned) [Exemple 1, Oxalate acidede 4-[α-hydroxy(pyrrolidin-2-yl)méthyl]1,2-benzène diol (isomère A)] | 25 | 250 | 52 | retarde l'apparition de l'hypothermie provoquée par la réserpine | 100 | -35 | >65 | – | –
Oc1ccc(C(O)C2CCCN2)cc1O (single isomer, unassigned) [Exemple 3, Chlorhydrate du 4-/α-hydroxy(pyrrolidin-2-yl) méthyl/1,2-benzène diol (isomère B)] | – | – | – | – | – | – | – | 40 | 17
